Measured values reported in patent publication US4699901A, “Diacyl derivatives of glycerylphosphorylcholine, their preparation, and antihyperlipidemic compositions” (Neopharmed SpA, priority 1984, dated 1987).

What was measured:
[1] = test system: cholesteryl ester hydrolysis and synthesis (acyl-CoA: cholesterol-acyltransferase); settings: cited from earlier work
[2] = test system: levels of acetylcholine in the cortex; assay: experimental model in the mouse of the presinaptic neurochemical damage of Alzheimer disease (Mantione); type: in vivo; settings: Alzheimer model (Mantione et al.)
[3] = test system: cholesterol and triglycerides; assay: hyperlipidemie test induced in the rat by the administration of Triton WR 1330; type: in vivo; settings: Triton induced hyperlipidemia, at the minimum dose of 37.5 mg/kg p.os
Excerpt: The bis(pyridyl-3-carboxilate) esters of formula (I) show an antidislipemic activity higher than that of nicotinic acid.

For `CCCCC/C=C\C/C=C\CCCCCCCC(=O)OC[C@H](COP(=O)([O-])OCC[N+](C)(C)C)OC(=O)CCCCCCC/C=C\C/C=C\CCCCC` [polienoic phosphatidylcholine, glyceril phosphorylcholine Dilinoleate], the anti-aterogenic action [1] is listed as “An anti-aterogenic action”, the “hydrolysis of cholesteryl ester” value [1] is listed as “an increase of the hydrolysis of cholesteryl ester” and the “synthesis of cholesteryl esters from acyl-CoA: cholesterol-acyltransferase” value [1] is listed as “a reduction of the synthesis of cholesteryl esters”.
For “L(alpha) glycerylphosphorylcholine bis(pyridyl-3-carboxilate) calcium salt”, the “inhibition of the regional diminution of the levels of acetylcholine in the cortex” value [2] was “inhibits, in a dose-answer form, the regional diminution of the levels of acetylcholine in the cortex”.
With `C[N+](C)(C)CCOP(=O)([O-])OC[C@@H](COC(=O)c1cccnc1)OC(=O)c1cccnc1` [optically active form L(alpha), L(alpha) glycerylphosphorylcholine bis(pyridyl-3-carboxilate)] the inhibition of cholesterol [3] was 50% and the inhibition of triglycerides [3] was 50%.
